Laboratory results taken from the supplement of paper PMC12513837.
± gives the standard deviation of the averaged measurements.

The test systems below were run with CC(=O)N1CCc2c(c(N3CCCc4cc(-c5cnn(C)c5)c(C(F)F)cc43)nn2C2CCC(CN3CCN(c4ccc5c(c4)C(=O)N(C4CCC(=O)NC4=O)C5=O)CC3)CC2)C1 [CBPD-409] (assay: AUC of viability dose-response curve (relative to vehicle, 8 doses up to 10 µM) (fraction); higher = less sensitive (more viable); extreme values may be limits of the assay).
Method: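 PRISM multiplexed pooled barcoded cell line viability screen at the Broad Institute, 887 cancer cell lines treated with CBPD-409 (p300/CBP PROTAC degrader) at 8 concentrations in threefold dilution, top dose 10 µM. The read-out is the area under the dose-response curve of relative viability versus vehicle (n=3). AUC < 0.3 is called strongly sensitive and AUC > 0.8 resistant.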

Test System	AUC of viability dose-response curve
LNCAPCLONEFGC_PROSTATE	0.249
LNZ308_CENTRAL_NERVOUS_SYSTEM	0.998
LOUNH91_LUNG	0.731
LOVO_LARGE_INTESTINE	0.131
LOXIMVI_SKIN	0.845
LPS141_SOFT_TISSUE	1
LS180_LARGE_INTESTINE	0.961
LS411N_LARGE_INTESTINE	0.988
LS513_LARGE_INTESTINE	0.568
LS1034_LARGE_INTESTINE	0.295
LS_AUTONOMIC_GANGLIA	0.248
LU99_LUNG	0.831
LUDLU1_LUNG	1
LXF289_LUNG	0.522
M059K_CENTRAL_NERVOUS_SYSTEM	0.673
MALME3M_SKIN	0.272
MB1_THYROID	0.776
MC116_HAEMATOPOIETIC_AND_LYMPHOID_TISSUE	0.804
MCAS_OVARY	1
MCC13_SKIN	1
MCC26_SKIN	0.98
MCC142_SKIN	0.969
MCF7_BREAST	0.701
MDAMB175VII_BREAST	0.999
MDAMB231_BREAST	0.701

Test System	AUC of viability dose-response curve
MDAMB361_BREAST	0.368
MDAMB435S_SKIN	1
MDAMB436_BREAST	0.505
MDAMB453_BREAST	0.401
MDAMB468_BREAST	0.97
MDAPCA2B_PROSTATE	0.266
MEG01_HAEMATOPOIETIC_AND_LYMPHOID_TISSUE	0.74
MEL285_UVEA	0.639
MEL290_UVEA	0.688
MELHO_SKIN	0.263
MELJUSO_SKIN	1
MESSA_SOFT_TISSUE	0.126
MEWO_SKIN	0.268
MFE280_ENDOMETRIUM	0.581
MFE296_ENDOMETRIUM	0.514
MFE319_ENDOMETRIUM	0.353
MG63_BONE	1
MHHES1_BONE	0.842 ± 0.2
MHHNB11_AUTONOMIC_GANGLIA	0.488
MIAPACA2_PANCREAS	1
MKN1_STOMACH	1
MKN7_STOMACH	0.517
MKN45_STOMACH	0.238
MKN74_STOMACH	0.493
MM1S_HAEMATOPOIETIC_AND_LYMPHOID_TISSUE	0.328

Test System	AUC of viability dose-response curve
MM127_SKIN	1
MMNK1_BILIARY_TRACT	0.479
MOLM13_HAEMATOPOIETIC_AND_LYMPHOID_TISSUE	0.356
MOLM14_HAEMATOPOIETIC_AND_LYMPHOID_TISSUE	0.212
MOLP2_HAEMATOPOIETIC_AND_LYMPHOID_TISSUE	0.555
MOLT3_HAEMATOPOIETIC_AND_LYMPHOID_TISSUE	1
MOLT13_HAEMATOPOIETIC_AND_LYMPHOID_TISSUE	1
MOLT16_HAEMATOPOIETIC_AND_LYMPHOID_TISSUE	0.445
MONOMAC1_HAEMATOPOIETIC_AND_LYMPHOID_TISSUE	1
MONOMAC6_HAEMATOPOIETIC_AND_LYMPHOID_TISSUE	0.577
MON_SOFT_TISSUE	0.486
MP41_UVEA	0.212
MPP89_PLEURA	1
MS751_CERVIX	0.923
MSTO211H_PLEURA	0.672
NALM6_HAEMATOPOIETIC_AND_LYMPHOID_TISSUE	0.331
NB1_AUTONOMIC_GANGLIA	0.112 ± 0.083
NB4_HAEMATOPOIETIC_AND_LYMPHOID_TISSUE	0.277
NCIH23_LUNG	0.771
NCIH28_PLEURA	1
NCIH82_LUNG	1
NCIH157DM_LUNG	0.559
NCIH196_LUNG	0.755
NCIH226_LUNG	0.519
NCIH292_LUNG	0.831

Test System	AUC of viability dose-response curve
NCIH322_LUNG	0.574
NCIH358_LUNG	1
NCIH441_LUNG	0.558
NCIH446_LUNG	0.445
NCIH460_LUNG	1
NCIH520_LUNG	0.861
NCIH522_LUNG	0.942
NCIH524_LUNG	1
NCIH596_LUNG	1
NCIH647_LUNG	1
NCIH650_LUNG	0.606
NCIH661_LUNG	0.567
NCIH727_LUNG	0.875
NCIH747_LARGE_INTESTINE	1
NCIH838_LUNG	0.893
NCIH841_LUNG	0.855
NCIH1048_LUNG	0.878
NCIH1092_LUNG	1
NCIH1299_LUNG	0.79
NCIH1341_LUNG	1
NCIH1355_LUNG	1
NCIH1373_LUNG	1
NCIH1435_LUNG	1
NCIH1437_LUNG	0.895
NCIH1563_LUNG	0.445

Test System	AUC of viability dose-response curve
NCIH1568_LUNG	0.958
NCIH1573_LUNG	0.699
NCIH1581_LUNG	0.347
NCIH1623_LUNG	0.92
NCIH1648_LUNG	0.448
NCIH1650_LUNG	0.583
NCIH1651_LUNG	1
NCIH1693_LUNG	0.949
NCIH1703_LUNG	0.78
NCIH1792_LUNG	0.59
NCIH1793_LUNG	0.838
NCIH1838_LUNG	0.758
NCIH1876_LUNG	1
NCIH1915_LUNG	0.697
NCIH1944_LUNG	1
NCIH1975_LUNG	0.862
NCIH2004RT_SOFT_TISSUE	1
NCIH2009_LUNG	0.596
NCIH2023_LUNG	1
NCIH2030_LUNG	1
NCIH2052_PLEURA	0.444
NCIH2087_LUNG	0.834
NCIH2110_LUNG	0.703
NCIH2122_LUNG	0.654
NCIH2126_LUNG	1

Test System	AUC of viability dose-response curve
NCIH2170_LUNG	1
NCIH2171_LUNG	1
NCIH2172_LUNG	0.62
NCIH2196_LUNG	1
NCIH2228_LUNG	0.91
NCIH2347_LUNG	0.648
NCIH2444_LUNG	1
NCIH2452_PLEURA	1
NCO2_HAEMATOPOIETIC_AND_LYMPHOID_TISSUE	0.243
NIHOVCAR3_OVARY	1
NOMO1_HAEMATOPOIETIC_AND_LYMPHOID_TISSUE	0.279
NOZ_LIVER	1
NP2_CENTRAL_NERVOUS_SYSTEM	0.868
NP3_CENTRAL_NERVOUS_SYSTEM	0.802
NP5_CENTRAL_NERVOUS_SYSTEM	0.488
NUDHL1_HAEMATOPOIETIC_AND_LYMPHOID_TISSUE	0.67
NUGC3_STOMACH	1
NUGC4_STOMACH	0.344
NZOV9_OVARY	1
OACM51_OESOPHAGUS	1
OAW42_OVARY	0.814
OC314_OVARY	0.619
OC316_OVARY	0.486
OCIAML2_HAEMATOPOIETIC_AND_LYMPHOID_TISSUE	0.551
OCIAML5_HAEMATOPOIETIC_AND_LYMPHOID_TISSUE	0.461
